The values below come from publication PMC9782819, “Ramosin: The First Antibacterial Peptide Identified on Bolitoglossa ramosi Colombian Salamander” (Pharmaceutics, 2022).

Where no end group is shown, it is not given here.

Data set [1] has as its system Staphylococcus aureus ATCC 29,213. Kind of data set: Growth inhibition kinetics (bactericidal or bacteriostatic). In kind it is cell-based. The conditions noted are these: 19 h, peptide 70 μM. The procedure:
(§1) To determine the minimum inhibitory concentrations (MICs) of the candidate peptides, the 96-well plate microdilution assay, described by the Clinical and Laboratory Standards Institute (CLSI) and the European Committee on Antimicrobial Susceptibility Testing (EUCAST), was performed. For testing the antimicrobial activity of the candidate peptides, Gram-positive and Gram-negative bacterial strains were used. […] For this assay, 3 to 5 colonies were taken from the agar and grown to exponential phase in tryptic soy broth (TSB) liquid medium defined as a 0.5 McFarland value measured with a densichek plus (Biomérieux). […] The plates were incubated for 18 h at 37 °C, and subsequently the absorbance was read in a MultiSkan GO (Thermofisher, Waltham, MA, USA) at 600 nm. […] To determine if the effect of the peptides was bactericidal or bacteriostatic, once the absorbance reading was completed, 10 μL were taken from each well where bacterial growth inhibition was observed and they were sown in TSA agars and incubated at 37 °C for 24 h. […]
(§2) All bacterial strains used were ATCC reference strains. The antibacterial activity of Ramosin was evaluated using the Wiegand et al. protocol. […]
(§3) In addition to absorbance measurement, a bacterial growth test was performed. […]

The test system is the same in data set [2]. In words: Broth microdilution endpoint assay / MIC. The data set is classed as cell-based. The conditions noted are these: 19 h treatment, absorbance 600 nm, p > 0.005. Here is the method:
as §1, §2, §3
On the technique in general: In broth dilution the organism is exposed to a series of concentrations in liquid medium.

Data set [3] has as its system Escherichia coli ATCC 25,922. Kind of data set: Growth inhibition kinetics (bactericidal or bacteriostatic). In kind it is cell-based. The following applies: 19 h, peptide 70 μM. Here is the method: (§4) To determine the minimum inhibitory concentrations (MICs) of the candidate peptides, the 96-well plate microdilution assay, described by the Clinical and Laboratory Standards Institute (CLSI) and the European Committee on Antimicrobial Susceptibility Testing (EUCAST), was performed. For testing the antimicrobial activity of the candidate peptides, Gram-positive and Gram-negative bacterial strains were used. The strains used were Staphylococcus aureus ATCC 29,213 (S. aureus), Enterococcus faecalis ATCC 29,212 (E. faecalis), Bacillus cereus ATCC 6464 (B. cereus), and Micrococcus luteus ATCC 9341 (M. luteus) as Gram-positive, and Escherichia coli ATCC 25,922 (E. coli), Pseudomonas aeruginosa ATCC 27,853 (P. aeruginosa), and Salmonella typhimurium ATCC 14,028 (S. typhimurium) as Gram-negative. The bacteria were cultivated in tryptic soy agar (TSA) until the time of carrying out the antimicrobial activity assay. For this assay, 3 to 5 colonies were taken from the agar and grown to exponential phase in tryptic soy broth (TSB) liquid medium defined as a 0.5 McFarland value measured with a densichek plus (Biomérieux). Bacteria were diluted to a final concentration of 5 × 10^5 CFU/mL. […] The plates were incubated for 18 h at 37 °C, and subsequently the absorbance was read in a MultiSkan GO (Thermofisher, Waltham, MA, USA) at 600 nm. […] To determine if the effect of the peptides was bactericidal or bacteriostatic, once the absorbance reading was completed, 10 μL were taken from each well where bacterial growth inhibition was observed and they were sown in TSA agars and incubated at 37 °C for 24 h. […]
(§5) All bacterial strains used were ATCC reference strains. The antibacterial activity of Ramosin was evaluated using the Wiegand et al. protocol. […] Two types of tests were carried out: the endpoint, in which the absorbance of the plates was read after 19 h of treatment, and kinetics, in which plate readings were made every hour to determine whether the effect of the peptides was bactericidal or bacteriostatic.
as §3

In data set [4] the test system is Bacillus cereus ATCC 6464. The description is as above. The data set is classed as cell-based. The conditions noted are these: 19 h, peptide 70 μM. The procedure: as §4, §5, §3
The subject of data set [5] is Pseudomonas aeruginosa ATCC 27,853. The description is as above. The data set is classed as cell-based. The conditions noted are these: 19 h, peptide 70 μM. Here is the method:
as §4, §5, §3

The test system of data set [6] is human red blood cells.
Method: The hemolytic activity of the peptide was determined as previously reported [45]. In brief, its hemolytic activity of the peptide was evaluated by determining the amount of the released hemoglobin from a 4% v/v suspension of fresh human red blood cells (RBCs). In 96-well plates, 65 μL of the RBCs suspension and 65 μL of each peptide dilution were mixed. […] Plates were incubated at 37 °C for two hours, then centrifuged at 2500× g for 5 min. A total of 80 μL of supernatant was recovered and transferred to another 96-well plate, and absorbance at 540 nm was measured in a MultiSkan GO (Thermofisher, Waltham, MA, USA). The percentage of hemolysis was calculated according to the following formula [45]: (1) %Hemolysis=OD450 in the peptide suspension−OD450 negative control in PBS/OD450 of positive control−OD450 negative control in PBS×100
Data set [7] concerns Escherichia coli ATCC 25,922. In kind it is cell-based. The following applies: ATCC 25, 18 h. The procedure: as §1, §2, §3

Buforin II: in data set [1], the “effect on S. aureus at 70 μM” value is reported as “failed to inhibit the growth”. For the same substance, in data set [2], the “effect on viability of S. aureus, endpoint assay (peptide control)” value was “did not have a statistically significant effect”. In data set [3], the “effect on E. coli at 70 μM” value is “bactericidal effect”. In data set [4], the “effect on B. cereus at 70 μM” value is listed as “failed to inhibit the growth”. In addition, the “effect on P. aeruginosa at 70 μM” value in data set [5] is “bactericidal effect”.

As for GWFSLVRKVVGGVGSL-NH2 [Ramosin], the “non-hemolytic concentration relative to MIC” value in data set [6] was “up to four times its MIC”. Moreover, the “MIC for E. coli” value in data set [7] is 17.5 µM.
